Test results published in patent publication US10980824B2, “Pharmaceutical composition comprising quercetin-3-O-β-D-xylopyranoside for preventing or treating liver disease” (Hongcheon Institute of Medical Herb, priority 2016, dated 2021).

How the values were obtained:
ApoB gene = assay: Real-time PCR of lipid metabolism gene expression in liver: ApoB; format: in vivo, C57BL/6N mice; conditions: liver mRNA, relative to Pair-fed group; EtOH+B group, 1 mg/kg oral 10 days (FIG. 11)
Protocol: 8-week-old C57BL/6N mice were purchased from DAEHAN BIOLINK to be used for efficacy evaluation and quarantined and acclimated in a vivarium of HONGCHEON INSTITUTE OF MEDICAL HERB for 7 days (relative temperature: 23±2° C., relative humidity: 50±5%, and a 12 h light-dark cycle) prior to the start of experimentation. Among them, 18 male mice with no abnormal symptoms were selected and used.
During a liquid diet adaptation period, a control group was restrictedly fed with a Lieber-DeCarli'82 control liquid diet (F1259SP, Bio-serv), and an alcohol-fed group was restrictedly fed with a Lieber-DeCarli'82 ethanol liquid diet (F1258SP, Bio-serv) using a Liquid diet feeding tube (9019, Bio-serv), and the diets were replaced with new ones at a preset time between 3 P.M. and 5 P.M. […]
Real-time quantitative PCR was performed using a 7500 Real-time Thermal Cycler (Applied Biosystems, USA) with SYBR Green (Applied Biosystems, USA) to measure gene expression. […]
PCR amplification steps as described below were repeated for up to 40 cycles. […] Values were recorded after extension at every cycle.
After completion of all cycles, melting curve analysis was carried out to verify specificity of the primers. The results were analyzed using the One step system software v2.1 provided by Applied Biosystems.

TNF-α = assay: Inhibitory effect on TNF-α in alcoholic steatosis mice; format: in vivo, C57BL/6N mice; conditions: liver tissue, vs alcohol-fed group (FIG. 12A)
Protocol: The level of TNF-α in liver tissue was measured by using RT-PCR and ELISA as described above in Example 2-7 to analyze whether the amount of TNF-α induced by alcohol was reduced due to treatment of quercetin-3-O-β-D-xylopyranoside.
A commercially available ELISA kit purchased from R&D Systems (Minneapolis, Minn.) was used.

O=c1c(O[C@@H]2OC[C@@H](O)[C@H](O)[C@H]2O)c(-c2ccc(O)c(O)c2)oc2cc(O)cc(O)c12 [quercetin-3-O-β-D-xylopyranoside]
expression level of the ApoB gene (ApoB gene): 0.8 times | expression level of RNA of TNF-α (TNF-α; 1 mg/kg): significantly inhibited | expression level of RNA of TNF-α (TNF-α; 10 mg/kg): significantly inhibited
